Patent publication US8765748B2, “Indazolyl, benzimidazolyl, benzotriazolyl substituted indolinone derivatives as kinase inhibitors useful in the treatment of cancer” (University Health Network, priority 2007, dated 2014)

Columns and labels:
Type in all cases: biochemical
human PLK4 = target: T1, human PLK4 (Homo sapiens, UniProt O00444); assay: PLK4 Inhibition Assay (indirect ELISA); conditions: 15 μM ATP, 4 nM GST-PLK4; read-out: PLK4 IC50 Ranges
T1 construct: amino terminal GST fusion of residues 1-391 of human PLK4; made in house; host or cells: E. coli
T1 sequence (O00444 1-391): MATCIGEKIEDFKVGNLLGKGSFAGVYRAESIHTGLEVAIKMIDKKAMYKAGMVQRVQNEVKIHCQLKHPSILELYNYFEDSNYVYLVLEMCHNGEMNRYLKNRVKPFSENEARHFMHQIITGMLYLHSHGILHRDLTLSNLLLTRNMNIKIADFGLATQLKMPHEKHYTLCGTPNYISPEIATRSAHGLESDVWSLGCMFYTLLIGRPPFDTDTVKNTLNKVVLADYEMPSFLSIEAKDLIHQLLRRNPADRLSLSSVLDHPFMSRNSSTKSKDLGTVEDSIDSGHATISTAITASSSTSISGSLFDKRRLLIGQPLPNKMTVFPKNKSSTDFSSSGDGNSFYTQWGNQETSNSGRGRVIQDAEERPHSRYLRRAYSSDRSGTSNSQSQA
Description: The protein was purified from clarified cell extracts after induction at 15° C. overnight using glutathione sepharose, gel permeation chromatography, and ion exchange (Resource Q). The resulting protein was dephosphorylated with lambda phosphatase (NEB cat #P0753), and resolved from the phosphatase using gluthione sepharose. The dephosphorylated GST-PLK4 was stored in aliquots at −80° C. until use. PLK4 activity was measured using an indirect ELISA detection system. […] Compounds were pre-incubated in the presence of enzyme for 15 minutes prior to addition of ATP and the activity remaining quantified using the above described activity assay. […] The IC50 value was determined using a non-linear 4 point logistic curve fit (XLfit4, IDBS) with the formula; (A+(B/(1+((x/C)^D)))), where A=background value, B=range, C=inflection point, D=curve fit parameter.

Aurora A = target: T2, Aurora A (Homo sapiens, UniProt O14965); assay: Aurora A Inhibition Assay (Z-Lyte); conditions: for IC50: 20 μM ATP, 12 nM Aurora A, read-out: Aurora A IC50 Ranges
T2 construct: purchased Invitrogen PV3612
T2 sequence (O14965 1-403): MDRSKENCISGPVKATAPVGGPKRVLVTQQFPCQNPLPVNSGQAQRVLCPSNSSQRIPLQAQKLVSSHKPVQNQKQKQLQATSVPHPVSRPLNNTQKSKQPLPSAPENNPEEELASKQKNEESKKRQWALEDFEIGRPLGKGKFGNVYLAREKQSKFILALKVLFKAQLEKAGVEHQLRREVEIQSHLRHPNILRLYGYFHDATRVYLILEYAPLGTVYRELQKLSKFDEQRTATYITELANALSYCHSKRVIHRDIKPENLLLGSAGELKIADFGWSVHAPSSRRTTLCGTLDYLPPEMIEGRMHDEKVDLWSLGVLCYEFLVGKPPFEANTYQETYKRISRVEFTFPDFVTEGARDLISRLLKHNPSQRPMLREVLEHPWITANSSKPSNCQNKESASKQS
Description: (§1) Aurora A inhibition was determined using the Z-Lyte assay kit from Invitrogen. The assay was performed using the recommended manufacturer's instructions with 20 μM ATP and 12 nM Aurora A (Invitrogen cat #PV3612). The % inhibition values were determined according to the manufacturer's directions and IC50 values were obtained using a non-linear 4 point logistic curve fit (XLfit4, IDBS)

Aurora B = target: T3, Aurora B (Homo sapiens, UniProt Q96GD4); assay: Aurora B Inhibition Assay (Z-Lyte); conditions: 128 μM ATP, 28 nM Aurora B; read-out: Aurora B IC50 Ranges
T3 construct: purchased Invitrogen PV3970
Description: as §1, with “Aurora B” for “Aurora A”, “with 128” for “with 20”, “and 28” for “and 12”, “cat #PV3970).” for “cat #PV3612).”

PLK1 = target: T4, PLK1 (Homo sapiens, UniProt P53350); assay: PLK1 Inhibition Assay (Z-Lyte); conditions: 25 μM ATP, 8 nM PLK1; read-out: PLK1 IC50 Ranges
T4 construct: purchased Invitrogen PV3501
Description: PLK1 inhibition was determined using the Z-Lyte assay kit from Invitrogen (cat #PV3802). […] The % inhibition values were determined according to the manufacturer's directions and IC50 values were obtained using a non-linear 4 point logistic curve fit (XLfit4, IDBS)

T4 sequence (P53350 whole entry): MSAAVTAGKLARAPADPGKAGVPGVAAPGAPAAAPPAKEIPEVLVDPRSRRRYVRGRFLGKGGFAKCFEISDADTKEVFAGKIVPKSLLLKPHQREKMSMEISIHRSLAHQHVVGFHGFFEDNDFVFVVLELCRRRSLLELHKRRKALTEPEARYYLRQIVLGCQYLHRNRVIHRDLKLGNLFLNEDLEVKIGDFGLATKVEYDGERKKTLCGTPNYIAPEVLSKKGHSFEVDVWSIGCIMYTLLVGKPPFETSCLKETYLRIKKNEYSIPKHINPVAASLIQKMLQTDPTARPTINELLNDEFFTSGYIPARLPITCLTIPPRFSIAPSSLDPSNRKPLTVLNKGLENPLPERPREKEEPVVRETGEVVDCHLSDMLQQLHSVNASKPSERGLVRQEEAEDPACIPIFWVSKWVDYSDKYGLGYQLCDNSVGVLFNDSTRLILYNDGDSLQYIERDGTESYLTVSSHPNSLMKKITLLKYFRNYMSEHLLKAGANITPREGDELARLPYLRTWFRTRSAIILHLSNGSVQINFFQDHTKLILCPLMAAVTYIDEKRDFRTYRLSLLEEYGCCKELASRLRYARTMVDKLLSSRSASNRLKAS
T3 sequence (Q96GD4 whole entry): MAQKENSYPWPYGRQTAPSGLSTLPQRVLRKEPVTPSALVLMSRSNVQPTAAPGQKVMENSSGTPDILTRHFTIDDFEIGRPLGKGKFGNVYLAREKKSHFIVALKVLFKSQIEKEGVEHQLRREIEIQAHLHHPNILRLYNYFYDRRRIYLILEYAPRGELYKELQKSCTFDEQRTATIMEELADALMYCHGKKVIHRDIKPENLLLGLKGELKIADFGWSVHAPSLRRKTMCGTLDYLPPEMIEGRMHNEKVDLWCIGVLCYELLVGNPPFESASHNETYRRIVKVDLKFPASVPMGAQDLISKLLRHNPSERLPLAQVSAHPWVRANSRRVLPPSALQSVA

SMILES | IC50 (human PLK4) | inhibition at 10 µM (Aurora A; 10 μM compound, read-out: Aurora A relative inhibition percentage at a dose of 10 μM) | IC50 (Aurora B) | IC50 (PLK1) | IC50 (Aurora A)
COc1ccc2c(c1)/C(=C\c1ccc3c(/C=C/C(=O)N(C)CCN(C)C)n[nH]c3c1)C(=O)N2 [Example A126, (E)-N-(2-(dimethylamino)ethyl)-3-(6-((E)-(5-methoxy-2-oxoindolin-3-ylidene)methyl)-1H-indazol-3-yl)-N-methylacrylamide 2,2,2-trifluoroacetate] | < 5 µM | > 50% | < 5 µM |  | 
CN1C(=O)/C(=C/c2ccc3nn[nH]c3c2)c2ccccc21 [Example A33, (E)-3-((1H-benzo[d][1.2.3]triazol-5-yl)methylene)-1-methylindolin-2-one] | 5 to 50 µM |  |  | > 50 µM | 
CC(=O)Nc1ccc2c(c1)NC(=O)/C2=C/c1ccc2[nH]ncc2c1 [Example A18] | < 5 µM |  |  | 5 to 50 µM | 
CN(C)S(=O)(=O)Nc1ccc2c(c1)/C(=C\c1ccc3cn[nH]c3c1)C(=O)N2 [Example A20, N′-[(3E)-3-(1H-indazol-6-ylmethylidene)-2-oxo-2,3-dihydro-1H-indol-5-yl]-N,N-dimethylsulfamide] | < 5 µM |  |  | < 5 µM | 
O=C1Nc2ccc(Br)cc2C1=Cc1ccc2c(/C=C/c3cccnc3)n[nH]c2c1 (mixture of isomers) [Example A139, (E and Z)-5-bromo-3-((3-((E)-2-(pyridin-3-yl)vinyl)-1H-indazol-6-yl)methylene)indolin-2-one] | < 5 µM |  | < 5 µM |  | < 5 µM
CN(C)S(=O)(=O)Nc1ccc2c(c1)/C(=C\c1ccc3nn[nH]c3c1)C(=O)N2 [Example A21, N′-[(3E)-3-(1H-benzotriazol-5-ylmethylidene)-2-oxo-2,3-dihydro-1H-indol-5-yl]-N,N-dimethylsulfamide] | < 5 µM |  |  | 5 to 50 µM | 
COc1ccc2c(c1)/C(=C\c1ccc3c(/C=C/c4ccc(C(=O)O)cc4)n[nH]c3c1)C(=O)N2 [Example A145, 4-((E)-2-(6-((E)-(5-methoxy-2-oxoindolin-3-ylidene)methyl)-1H-indazol-3-yl)vinyl)benzoic acid] | < 5 µM |  | < 5 µM |  | < 5 µM
CS(=O)(=O)Nc1ccc2c(c1)/C(=C\c1ccc3cn[nH]c3c1)C(=O)N2 [Example A25, (E)-N-(3-((1H-indazol-6-yl)methylene)-2-oxoindolin-5-yl)methanesulfonamide] | < 5 µM |  |  | < 5 µM | 
CC(C)NC(=O)Nc1ccc2c(c1)/C(=C\c1ccc3nn[nH]c3c1)C(=O)N2 [Example A27, (E)-1-(3-((1H-benzo[d][1,2,3]triazol-5-yl)methylene)-2-oxoindolin-5-yl)-3-isopropylurea] | 5 to 50 µM |  |  | 5 to 50 µM | 
COc1ccc2c(c1)C(=Cc1ccc3c(/C=C/c4ccc(CN(C)C)cc4)n[nH]c3c1)C(=O)N2 (stereo in doubt) [Example A136b, (Z)-3-((3-(4-((dimethylamino)methyl)styryl)-1H-indazol-6-yl)-methylene)-5-methoxyindolin-2-one 2,2,2-trifluoroacetate] |  |  | < 5 µM |  | < 5 µM
CN(C)CCN(C)S(=O)(=O)c1ccc2c(c1)C(=Cc1ccc3c(/C=C/c4ccncc4)n[nH]c3c1)C(=O)N2 (mixture of isomers) [Example A129, (E and Z)—N-(2-(dimethylamino)ethyl)-N-methyl-2-oxo-3-((3-((E)-2-(pyridin-4-yl)vinyl)-1H-indazol-6-yl)methylene)indoline-5-sulfonamide] | < 5 µM |  | < 5 µM |  | 
CS(=O)(=O)Nc1ccc2c(c1)/C(=C\c1ccc3nn[nH]c3c1)C(=O)N2 [Example A24, (E)-N-(3-((1H-benzo[d][1,2,3]triazol-5-yl)methylene)-2-oxoindolin-5-yl)methanesulfonamide] | < 5 µM |  |  | 5 to 50 µM | 
CNC(=O)c1ccc2c(c1)/C(=C\c1ccc3cn[nH]c3c1)C(=O)N2 [Example A8, (E)-3-((1H-indazol-6-yl)methylene)-N-methyl-2-oxoindoline-5-carboxamide] | 5 to 50 µM |  |  | 5 to 50 µM | 
CC(=O)Nc1ccc2c(c1)NC(=O)/C2=C/c1ccc2nn[nH]c2c1 [Example A17, (E)-N-(3-((1H-benzo[d][1,2,3]triazol-5-yl)methylene)-2-oxoindolin-6-yl)acetamide] | 5 to 50 µM |  |  | 5 to 50 µM | 
O=C1Nc2cc(-c3cccnc3)ccc2/C1=C\c1ccc2[nH]nnc2c1 [Example A29, (E)-3-((1H-benzo[d][1,2,3]triazol-5-yl)methylene)-6-(pyridin-3-yl)indolin-2-one] | < 5 µM |  |  | > 50 µM | 
Nc1ccc2c(c1)/C(=C\c1ccc3cn[nH]c3c1)C(=O)N2 [Example A15, (E)-3-((1H-indazol-6-yl)methylene)-2-oxoindolin-5-aminium 2,2,2-trifluoroacetate] | < 5 µM |  |  | 5 to 50 µM | 
O=C1Nc2cc(-c3cccnc3)ccc2/C1=C\c1ccc2[nH]ncc2c1 [Example A30, (E)-3-((1H-indazol-5-yl)methylene)-6-(pyridin-3-yl)indolin-2-one] | 5 to 50 µM |  |  | > 50 µM | 
CN(C)CCCNc1ccc2c(c1)C(=Cc1ccc3c(/C=C/c4ccncc4)n[nH]c3c1)C(=O)N2 (mixture of isomers) [Example A130, (E and Z)-5-(3-(dimethylamino)propylamino)-3-((3-((E)-2-(pyridin-4-yl)-vinyl)-1H-indazol-6-yl)methylene)indolin-2-one] | < 5 µM |  | < 5 µM |  | 
CC(C)(C)OC(=O)Nc1ccc2c(c1)/C(=C\c1ccc3cn[nH]c3c1)C(=O)N2 [Example A12, (E)-tert-butyl 3-((1H-indazol-6-yl)methylene)-2-oxoindolin-5-ylcarbamate] | < 5 µM |  |  | 5 to 50 µM | 
CN1C(=O)/C(=C/c2ccc3cn[nH]c3c2)c2ccccc21 [Example A34, (E)-3-((1H-indazol-6-yl)methylene)-1-methylindolin-2-one] | 5 to 50 µM |  |  | 5 to 50 µM | 
O=C1Nc2ccccc2C1=Cc1cc(/C=C/c2ccncc2)c2cn[nH]c2c1 (mixture of isomers) [Example A55, (E and Z)-3-((4-((E)-2-(pyridin-4-yl)vinyl)-1H-indazol-6-yl)methylene)indolin-2-one] | < 5 µM |  | < 5 µM |  | 
CC(=O)Nc1ccc2c(c1)/C(=C\c1ccc3nn[nH]c3c1)C(=O)N2 [Example A23, (E)-N-(3-((1H-benzo[d][1,2,3]triazol-5-yl)methylene)-2-oxoindolin-5-yl)acetamide] | < 5 µM |  |  | 5 to 50 µM | 
C/C(=C1\C(=O)Nc2ccccc21)c1ccc2cn[nH]c2c1 [Example A51, (E)-3-(1-(1H-indazol-6-yl)ethylidene)indolin-2-one] | < 5 µM |  | 5 to 50 µM |  | 
Nc1ccc2c(c1)/C(=C\c1ccc3c(/C=C/c4ccncc4)n[nH]c3c1)C(=O)N2 [Example A122, (E)-5-amino-3-((3-((E)-2-(pyridin-4-yl)vinyl)-1H-indazol-6-yl)-methylene)indolin-2-one bis(2,2,2-trifluoroacetate)] | < 5 µM |  | < 5 µM |  | 
O=C1Nc2ccc(OC(F)(F)F)cc2/C1=C\c1ccc2nn[nH]c2c1 [Example A14, (E)-3-((1H-benzo[d][1,2,3]triazol-5-yl)methylene)-5-(trifluoromethoxy)indolin-2-one] | < 5 µM |  |  | > 50 µM | 
